Assay results published in US5776932A, “1,3,5-tribsubstituted indazole derivatives, processes for preparing, and for pharmacological treatment therewith” (Arzneimittelwerk Dresden G.m.b.H., priority 1996, dated 1998).
pIC50: −log10 of the molar value.

Tests used:
[1] = target: T1, arachidonate-5-lipoxygenase (Rattus norvegicus, UniProt P12527); experiment: Inhibition of 5-lipoxygenase in prepared macrophages from Wistar rats; assay type: cell-based; conditions: quadruple determinations, mean IC50, read-out: IC50 (50% inhibition of 5-lipoxygenase)
T1 construct: using prepared macrophages from Wistar rats; endogenous in cells; host or cells: prepared macrophages from Wistar rats
T1 sequence (P12527 1-673): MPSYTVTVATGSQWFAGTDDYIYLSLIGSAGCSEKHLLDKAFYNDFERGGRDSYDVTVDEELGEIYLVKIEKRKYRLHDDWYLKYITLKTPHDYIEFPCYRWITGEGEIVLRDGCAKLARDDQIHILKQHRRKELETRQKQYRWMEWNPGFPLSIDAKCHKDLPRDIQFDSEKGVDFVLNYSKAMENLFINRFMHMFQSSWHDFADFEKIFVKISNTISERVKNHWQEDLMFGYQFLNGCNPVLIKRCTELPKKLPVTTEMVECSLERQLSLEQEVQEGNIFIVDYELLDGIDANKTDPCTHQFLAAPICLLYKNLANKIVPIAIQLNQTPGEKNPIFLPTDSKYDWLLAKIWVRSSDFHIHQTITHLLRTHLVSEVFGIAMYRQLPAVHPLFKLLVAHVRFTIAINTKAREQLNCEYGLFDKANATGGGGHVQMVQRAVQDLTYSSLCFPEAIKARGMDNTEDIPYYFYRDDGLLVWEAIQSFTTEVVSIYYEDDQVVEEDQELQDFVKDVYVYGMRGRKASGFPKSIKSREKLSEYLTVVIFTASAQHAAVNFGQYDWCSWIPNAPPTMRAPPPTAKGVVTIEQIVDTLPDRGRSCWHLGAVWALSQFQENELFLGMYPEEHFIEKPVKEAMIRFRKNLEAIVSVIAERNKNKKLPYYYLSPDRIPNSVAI
Description: Murphy, R. C. and Matthews, W. R., Purification and Characterization of Leukotrienes from Mastocytoma Cells, Methods in Enzymology, 86, pp. 409-416.
Argentiere, D. D., Ritchie, D. M. et al., Tepoxalin: A Dual Cyclooxygenase/5-Lipoxygenase Inhibitor of Arachidonic Acid Metabolism with Potent Anti-inflammatory Activity and a Favorable Gastrointestinal Profile, The Journal of Pharmacology and Experimental Therapeutics, Vol. 271, No. 3, 1399-1408, 1994.
Carter, G. W., Young, P. R. et al., 5-Lipoxygenase Inhibitory activity of Zileuton, The Journal of Pharmacology and Experimental Therapeutics, Vol. 256, No. 3, 1991.
The experiments were all conducted as quadruple determinations, by combining four partial experiments in each case were combined to determine the mean IC50 value.

[2] = test system: tracheal segments from actively sensitized guinea-pigs; experiment: Inhibition of the antigen (ovalbumin)-induced contraction of isolated tracheal segments from actively sensitized guinea-pigs; set-up: species or system guinea-pig; conditions: Cavia porcellus; under mepyramine and indomethacin protection; carbachol = 100%
Method: For this purpose, isolated tracheal segments from guinea-pigs actively sensitized against ovalbumin by the s.c. administration of 10 μg of ovalbumin with 1 mg of aluminum hydroxide adjuvant, three weeks before removal of the organ, and a booster dose of the same amount of ovalbumin and aluminum hydroxide s.c. one week before removal of the organ. The segments were placed in organ baths filled with a nutrient solution aerated with carbogen which is a mixture of 95% oxygen and 5% carbon dioxide, and kept at 37° C., and were connected to isometric force transducers. After preincubation with mepyramine to eliminate histamine, and indomethacin for the inhibition of cyclooxygenase, 5×10^-7 mol/l carbachol (carbamylcholine chloride) was added and a contraction was induced. 10 μg/ml ovalbumin as an allergen was then added to the bath liquid and the maximum contraction of the tracheal segments which was thereby induced was correlated with the effect of the carbachol as control (=100%). The test substances were added to the organ bath 30 minutes before the allergen-induced contraction. Table 2 below indicates the IC50 values, i.e. the concentrations which cause a 50% inhibition of the contraction of isolated tracheal segments from the guinea-pig. The IC50 values were determined by testing 3-4 concentrations on 4-8 organs in each case.

[3] = test system: SRS-A bronchoconstriction in guinea-pigs sensitized with ovalbumin; experiment: SRS-A bronchoconstriction in anaesthetized, ovalbumin-sensitized guinea-pigs after inhalation of antigen; assay type: in vivo; conditions: -2 hrs, 1% OA, 20 inspirations
Method: For this purpose, guinea-pigs are actively sensitized against ovalbumin (OA) with 20 μg OA+20 mg Al(OH)3 in 0.5 ml, administered intraperitoneally (i.p.) and a booster dose of the same is administered 14 days later. One week after the booster dose, the animals are i.p. anaesthetized with urethane and connected to an apparatus (Mumed Physiological Recorder 800) for the determination of pulmonary function parameters. The animals are pretreated with mepyramine to antagonize the histamine, with indomethacin to inhibit the formation of prostaglandins, and with propanolol to eliminate β-adrenergic mechanisms. If an allergic reaction is induced after this treatment, the associated bronchospam is extensively attributable to the effect of leukotrienes.
Before the experiment the test substances were administered orally two hours before the challenge. After an equilibration period an asthmatic challenge attack is induced by the nebulization of a 1% ovalbumin solution over 20 inspirations.
The drop in dynamic compliance is used as a suitable and well reproducible parameter for characterizing the action of leukotrienes. Under control conditions, after pretreatment and ovalbumin challenge, guinea-pigs react with a slow drop in compliance of c. 30-40% over 15 minutes.

late phase eosinophilia = experiment: Inhibition of late phase eosinophilia 24 hours after the inhalational ovalbumin challenge on actively sensitized guinea-pigs; assay type: in vivo; conditions: -2 h; for EOS, B (eosinophils in the group treated with the substance, with challenge): x ± s
Description: Eosinophilic granulocytes play an important part in the transition of allergic diseases, e.g. bronchial asthma, to the chronic stage. Thus the bronchoalveolar lavage fluid (BAL) contains an increased number of eosinophils a few hours after an allergen-induced asthmatic attack. Eosinophils are expected to play an important part in cell damage since they contain histotoxic proteins, like major basic protein (MBP) and eosinophil cation protein (ECP), in their granula. It is also assumed that substances which prevent the infiltration of eosinophils have a therapeutic action against allergic diseases like bronchial asthma.
The inhibition of eosinophil infiltration by the substances was tested in vivo on guinea-pigs actively sensitized against ovalbumin by the substantenous administration of 10 μg of OA, with 1 μg of aluminum hydroxide adjuvant, three weeks before the beginning of the experiment, and a booster dose containing the same amount of OA and aluminum hydroxide was administrated substantaneously one week before the beginning of the experiment. Three weeks after the first sensitization, the animals were placed in a plastic box and exposed to an aerosol of 0.5% OA dissolved in a physiological saline solution. The nebulization time was 20-30 seconds. After 24 hours the animals were intraperitoneally anaesthetized with 1.5 g/kg body weight ethylurethane and a bronchioalveolar lavage was performed with 2×5 ml of physiological saline solution. The lavage fluid was collected and centrifuged at 400 G for 10 minutes and the cell pellet was then resuspended in 1 ml of physiological saline solution. The eosinophils were microscopically counted in a Neubauer chamber after staining using the No. 5877 Becton-Dickinson test kit for eosinophilia. The number of eosinophils was indicated in millions per animal. Each test was also carried out with two control groups with and without antigen challenge.
The percentage inhibition of the eosinophilia in the experimental groups treated with the substance is calculated by the following formula:
(A-C)-(B-C)/(A-C)×100=% inhibition
The test substances were administered orally or intraperitoneally as a triturate in 0.5% 5-hydroxyethylcellulose two hours before the antigen challenge.

- pIC50 [1]: 7.36
SMILES: COc1ccc2c(c1)c(O)nn2Cc1ccc(OCc2ccc3ccccc3n2)cc1 [Example 50]
- pIC50 [2]: 5.54
- % drop in dyn. compliance ([3]; 5.0 mg/kg oral): 22 ± 10%
- % inhibition ([3]; 5.0 mg/kg oral): 45%
- % drop in dyn. compliance ([3]; 10.0 mg/kg oral): 12 ± 11%
- % inhibition ([3]; 10.0 mg/kg oral): 70%
- % inhibition (eosinophilia) (late phase eosinophilia; 10 mg/kg i.p.): 46.0%
- EOS, B (eosinophils in the group treated with the substance, with challenge) (late phase eosinophilia; 10 mg/kg i.p.): 3.8 ± 2.8 mill./animal
- % inhibition (eosinophilia) (late phase eosinophilia; 30 mg/kg p.o.): 34.0%
- EOS, B (eosinophils in the group treated with the substance, with challenge) (late phase eosinophilia; 30 mg/kg p.o.): 6.0 ± 3.4 mill./animal
